Data set [1] concerns the target SARS-CoV-2 Main Protease (SARS-CoV-2) (UniProt P0DTD1).
The target is the same in data set [2]. The source holds these as a separate data set.

What is called inhibition is the relative decrease from the control value, in per cent. As to `CC(C)N(C)CC1CCN(c2ccc(S(N)(=O)=O)cc2)CC1`, the relative solubility at 20 uM worked out at 1 and the relative solubility at 100 uM was 0.99. The inhibition in data set [1] (50.0 µM) was -17.8%. Also, in data set [2] (20.0 µM), the inhibition is 0%. For the same molecule, in data set [2] (50.0 µM), the inhibition is 0%.
`CCOC(=O)[C@@H](CCc1ccccc1)N[C@H](C)C(=O)Nc1cccc(CN2CCCC2)c1` (stereo in doubt) had a relative solubility at 20 uM of 0.99 and a relative solubility at 100 uM of 0.97. The inhibition in data set [1] (20.0 µM) is -3.55%. The inhibition in data set [1] (50.0 µM) was 1.33%. Moreover, in data set [2] (50.0 µM), the inhibition came to 6.6%.
As for `NS(=O)(=O)c1ccc(N2CCC(CN3CCCCCC3)CC2)cc1`, the relative solubility at 20 uM was found to be 0.99 and the relative solubility at 100 uM was 0.91. Also, the inhibition in data set [1] (20.0 µM) is -5.53%. Besides, the inhibition in data set [1] (50.0 µM) was -0.987%. Also, the inhibition in data set [2] (20.0 µM) was -2.46%. For the same molecule, the inhibition in data set [2] (50.0 µM) was 5.22%.
In the case of `Cc1cccc(NC(=O)Cn2c(=O)oc3ccccc32)c1`, the relative solubility at 20 uM turned out to be 0.99 and the relative solubility at 100 uM amounted to 0.94. In addition, the inhibition in data set [1] (20.0 µM) is -20.4%. In data set [1] (50.0 µM), the inhibition is -5.83%. For the same molecule, the inhibition in data set [2] (50.0 µM) is -9.03%.
`Cc1cccc(NC(=O)C(C#N)C(=O)C2CCC2)c1` (stereo unspecified) had a relative solubility at 20 uM of 0.99 and a relative solubility at 100 uM of 0.99. Besides, the inhibition in data set [1] (50.0 µM) is 1.6%. In addition, the inhibition in data set [2] (20.0 µM) amounted to 0.951%. In addition, the inhibition in data set [2] (50.0 µM) stood at 0%.
Molecule `C=CC(=O)N1CCCC(N(CC2CCCCC2)C2CCC(O)CC2)C1` (stereo unspecified) came in with a relative solubility at 20 uM of 1 and a relative solubility at 100 uM of 1. For the same molecule, the inhibition in data set [1] (20.0 µM) was -4.47%. Further, the inhibition in data set [1] (50.0 µM) was -0.824%. The inhibition in data set [2] (50.0 µM) stood at 0%.
The IC50 is the midpoint of a concentration-inhibition curve. Lower therefore signals greater potency. Molecule `Cc1ccncc1NC(=O)C(C)c1cccc(C#N)c1` (stereo unspecified) showed a relative solubility at 20 uM of 1 and a relative solubility at 100 uM of 1. For the same molecule, in data set [1] (20.0 µM), the inhibition was 35.4%. For the same molecule, the inhibition in data set [1] (50.0 µM) came out at 61.4%. This molecule showed an IC50 in data set [2] of 45.3 µM. Further, in data set [2] (20.0 µM), the inhibition was 21%. Also, the inhibition in data set [2] (50.0 µM) is 58.4%.
In turn, `Cc1ccncc1NC(=O)CCc1ccn[nH]1` displayed a relative solubility at 20 uM of 1 and a relative solubility at 100 uM of 1. Also, the inhibition in data set [1] (20.0 µM) came to 18.9%. Moreover, the inhibition in data set [1] (50.0 µM) is -26.3%. Besides, the inhibition in data set [2] (50.0 µM) is -1.76%.
`CCOCC(=O)NCc1ccc(CNC(=O)Cn2nnc3ccccc32)cc1`: the relative solubility at 20 uM came to 0.99 and the relative solubility at 100 uM stood at 1. Besides, the inhibition in data set [1] (20.0 µM) stood at 1.82%. In addition, the inhibition in data set [1] (50.0 µM) amounted to 1.31%. In addition, in data set [2] (50.0 µM), the inhibition was 0%.
`CC1(C)CCCN1S(=O)(=O)c1ccc2c(c1)C(=O)C(=O)N2` had a relative solubility at 20 uM of 0.94 and a relative solubility at 100 uM of 0.89. Also, the inhibition in data set [1] (20.0 µM) is -5.91%. Further, the inhibition in data set [1] (50.0 µM) is -10.7%. The inhibition in data set [2] (50.0 µM) stood at 0%.
On to `Cc1coc(NC(=O)Nc2cccnc2)n1`, for which the relative solubility at 20 uM was 1 and the relative solubility at 100 uM was 1. For the same molecule, the inhibition in data set [1] (20.0 µM) amounted to 2.91%. Moreover, the inhibition in data set [1] (50.0 µM) amounted to 8.86%. Besides, in data set [2] (20.0 µM), the inhibition worked out at 2.76%. In addition, in data set [2] (50.0 µM), the inhibition came to 8.52%.
Regarding `Cc1cnn(-c2ccncc2NC(=O)Cn2cc(C)c3ccccc32)c1`, the relative solubility at 20 uM stood at 0.59 and the relative solubility at 100 uM was 0.1. The inhibition in data set [1] (20.0 µM) is -8.61%. In data set [1] (50.0 µM), the inhibition was -0.417%. For the same molecule, the inhibition in data set [2] (50.0 µM) was 0%.
The molecule `Cc1nn(-c2ccccc2)c(Nc2cccc(C(F)(F)F)c2)c1NS(C)(=O)=O` had a relative solubility at 20 uM of 0.95 and a relative solubility at 100 uM of 0.97. Moreover, in data set [1] (20.0 µM), the inhibition was 3.18%. Besides, the inhibition in data set [1] (50.0 µM) is -5.82%. In addition, in data set [2] (50.0 µM), the inhibition was -10.6%.
Molecule `C=CC(=O)N(c1ccc(C2(C)CC2)cc1)C(C(=O)Nc1ccc(Cl)cc1)c1cccnc1` (stereo unspecified) gave a relative solubility at 20 uM of 0.95 and a relative solubility at 100 uM of 0.56. Further, in data set [1] (50.0 µM), the inhibition was -9.81%. For the same molecule, the inhibition in data set [2] (20.0 µM) is 0%. The inhibition in data set [2] (50.0 µM) is -0.67%.
`Cc1csc(C(=O)N/N=C/c2cccnc2)c1N` had a relative solubility at 20 uM of 0.99 and a relative solubility at 100 uM of 0.93. The inhibition in data set [1] (20.0 µM) was -0.86%. Besides, in data set [1] (50.0 µM), the inhibition was -19.8%. Besides, the inhibition in data set [2] (50.0 µM) was -6.32%.
With `N#CC(C(=O)Nc1cccc(Cl)c1)C(=O)c1cccs1` (stereo unspecified), the relative solubility at 20 uM turned out to be 1 and the relative solubility at 100 uM came to 1. For the same molecule, in data set [1] (50.0 µM), the inhibition amounted to 31.8%. In addition, the inhibition in data set [2] (20.0 µM) was 0%. Moreover, in data set [2] (50.0 µM), the inhibition was found to be 0%.
`N#Cc1ccc(CNC(=O)Cc2c[nH]c3ncccc23)nc1` displayed a relative solubility at 20 uM of 1 and a relative solubility at 100 uM of 1. In data set [1] (20.0 µM), the inhibition was 4.15%. The inhibition in data set [1] (50.0 µM) amounted to 0.616%. Also, the inhibition in data set [2] (20.0 µM) turned out to be 0%.
In the case of `Cc1ccc(C)c(S(=O)(=O)N2CCN(C(=O)CCl)CC2)c1`, the relative solubility at 20 uM turned out to be 0.99 and the relative solubility at 100 uM came to 0.98. In addition, the inhibition in data set [1] (50.0 µM) was found to be 101%. Further, the inhibition in data set [2] (20.0 µM) came out at 90.8%. Besides, the inhibition in data set [2] (50.0 µM) was 96.3%.
As for `Cc1noc(C)c1NC(=O)Cc1cccc(Cl)c1Cl`, the relative solubility at 20 uM was 1 and the relative solubility at 100 uM was 1. Besides, the inhibition in data set [1] (20.0 µM) was -2.3%. Moreover, in data set [1] (50.0 µM), the inhibition was -6.85%. Besides, in data set [2] (50.0 µM), the inhibition amounted to 0%.
As for `O=C(NCCOc1ccccc1)c1cc(=O)[nH]c2ccccc12`, the relative solubility at 20 uM was 1 and the relative solubility at 100 uM was 1. Also, the inhibition in data set [1] (20.0 µM) came out at 12.7%. Moreover, in data set [1] (50.0 µM), the inhibition was found to be 54.6%. The inhibition in data set [2] (50.0 µM) is 3.05%.
With `CC(C(=O)O)c1ccc2c(c1)[nH]c1ccc(Cl)cc12` (stereo unspecified), the relative solubility at 20 uM was found to be 1 and the relative solubility at 100 uM was determined as 0.98. Further, the inhibition in data set [1] (20.0 µM) was -0.548%. The inhibition in data set [1] (50.0 µM) worked out at 3.97%. The inhibition in data set [2] (20.0 µM) came out at 0%.
In turn, `C=CC(=O)N(c1ccc(C(C)(C)C)cc1)C(C(=O)Nc1ccc(F)cc1C)c1cccnc1` (stereo unspecified) yielded a relative solubility at 20 uM of 0.96 and a relative solubility at 100 uM of 0.91. Besides, the inhibition in data set [1] (20.0 µM) was determined as 5.61%. Besides, the inhibition in data set [1] (50.0 µM) amounted to 13.9%. Also, the inhibition in data set [2] (50.0 µM) was found to be 1.37%.
`Cc1ccc(S(=O)(=O)NC2CCN(C(=O)CCl)CC2)cc1` showed a relative solubility at 20 uM of 1 and a relative solubility at 100 uM of 1.01. The inhibition in data set [1] (20.0 µM) worked out at 25.1%. Also, the inhibition in data set [1] (50.0 µM) amounted to 59.3%. For the same molecule, the IC50 in data set [2] worked out at 18.5 µM. In data set [2] (20.0 µM), the inhibition came out at 54.9%.
Molecule `O=S(=O)(NCCc1ccccc1)c1ccoc1` had a relative solubility at 20 uM of 1 and a relative solubility at 100 uM of 1. In addition, the inhibition in data set [1] (50.0 µM) was -24.5%. Moreover, the inhibition in data set [2] (20.0 µM) worked out at 0%. In data set [2] (50.0 µM), the inhibition turned out to be 16.5%.
In turn, `Cc1ccncc1NC(=O)Cc1cccc(C(N)=O)c1` registered a relative solubility at 20 uM of 1.01 and a relative solubility at 100 uM of 1.01. The inhibition in data set [1] (20.0 µM) was 2.66%. For the same molecule, in data set [1] (50.0 µM), the inhibition was -5.83%. In addition, the inhibition in data set [2] (50.0 µM) was 0.535%.
Turning to `C=CC(=O)N(c1ccc(C(C)(C)C)cc1)C(C(=O)NC(C)(C)C)c1cncc(C(C)(F)F)c1` (stereo unspecified), the relative solubility at 20 uM was determined as 0.99 and the relative solubility at 100 uM came out at 0.96. Also, in data set [1] (20.0 µM), the inhibition was -11.5%. For the same molecule, in data set [1] (50.0 µM), the inhibition is -15.5%. Moreover, the inhibition in data set [2] (20.0 µM) came to 0%. Besides, in data set [2] (50.0 µM), the inhibition was 0%.
`CCC(=O)Nc1cccc(OC2CC(=O)N2)c1` (stereo unspecified): the relative solubility at 20 uM was determined as 1.01 and the relative solubility at 100 uM amounted to 1.01. For the same molecule, the inhibition in data set [1] (20.0 µM) is -4.99%. Further, in data set [1] (50.0 µM), the inhibition was -6.23%. The inhibition in data set [2] (50.0 µM) was 0%.
`C=CC(=O)N(c1ccc(N2CCC2)cc1)C(C(=O)NC(C)(C)C)c1cccnc1` (stereo unspecified) registered a relative solubility at 20 uM of 0.97 and a relative solubility at 100 uM of 0.93. For the same molecule, in data set [1] (20.0 µM), the inhibition is -18.5%. Besides, in data set [1] (50.0 µM), the inhibition was -17.3%. In addition, in data set [2] (20.0 µM), the inhibition stood at 0%.
